Measured values taken from US12471596B2 (priority 2019, dated 2025).

Key:
[1] = test system: Phytophthora infestans; experiment: microbe, parasite or virus in culture; assay type: cell-based; details: in Secale cereale, 168 h, read-out: control compared to the untreated check
[2] = test system: Phytophthora infestans; experiment: whole plant or invertebrate; assay type: in vivo, Phytophthora infestans on tomato plants; details: in Solanum lycopersicum, 24 h, read-out: control compared to the untreated check

| SMILES | inhibition of growth at 30 ppm [1] | pest or weed control at 50 ppm [2] |
| --- | --- | --- |
| O=C(COc1nccnc1C(F)(F)F)N1CCC(c2nc(C3=NOC(c4c(Cl)cccc4C(F)(F)F)C3)cs2)CC1 (stereo not shown) [Compound 4, 1-(4-(4-(5-(2-chloro-6-(trifluoromethyl)phenyl)-4,5-dihydroisoxazol-3-yl)thiazol-2-yl)piperidin-1-yl)-2-((3-(trifluoromethyl)pyrazin-2-yl)oxy)ethan-1-one] | ≥ 70% | ≥ 70% |
| O=C(COc1nccnc1C(F)(F)F)N1CCC(c2nc(C3=NOC(c4c(F)cccc4F)C3)cs2)CC1 (stereo not shown) [Compound 5, 1-(4-(4-(5-(2,6-difluorophenyl)-4,5-dihydroisoxazol-3-yl)thiazol-2-yl)piperidin-1-yl)-2-((3-(trifluoromethyl)pyrazin-2-yl)oxy)ethan-1-one] | ≥ 70% | ≥ 70% |
| CS(=O)(=O)Oc1cccc(Cl)c1C1CC(c2csc(C3CCN(C(=O)COc4nccnc4C(F)(F)F)CC3)n2)=NO1 (stereo not shown) [Compound 6, 3-chloro-2-(3-(2-(1-(2-((3-(trifluoromethyl)pyrazin-2-yl)oxy)acetyl)piperidin-4-yl)thiazol-4-yl)-4,5-dihydroisoxazol-5-yl)phenyl methanesulfonate] | ≥ 70% | ≥ 70% |
| CS(=O)(=O)Oc1cccc(Cl)c1C1CC(c2csc(C3CCN(C(=O)COc4cc(C(F)(F)F)ncn4)CC3)n2)=NO1 (stereo not shown) [Compound 7, 3-chloro-2-(3-(2-(1-(2-((6-(trifluoromethyl)pyrimidin-4-yl)oxy)acetyl)piperidin-4-yl)thiazol-4-yl)-4,5-dihydroisoxazol-5-yl)phenyl methanesulfonate] | ≥ 70% | ≥ 70% |
| O=C(COc1nccnc1C(F)(F)F)N1CCC(c2csc(C3=NOC(c4c(Cl)cc(Cl)cc4Cl)C3)n2)CC1 (stereo not shown) [Compound 8, 1-(4-(2-(5-(2,4,6-trichlorophenyl)-4,5-dihydroisoxazol-3-yl)thiazol-4-yl)piperidin-1-yl)-2-((3-(trifluoromethyl)pyrazin-2-yl)oxy)ethan-1-one] | ≥ 70% | ≥ 70% |
| O=C(COc1cc(C(F)(F)F)ncn1)N1CCC(c2nc(C3=NOC(c4c(F)cccc4Cl)C3)cs2)CC1 (stereo not shown) [Compound 9, 1-(4-(4-(5-(2-chloro-6-fluorophenyl)-4,5-dihydroisoxazol-3-yl)thiazol-2-yl)piperidin-1-yl)-2-((6-(trifluoromethyl)pyrimidin-4-yl)oxy)ethan-1-one] | ≥ 70% | ≥ 70% |
| O=C(COc1nccnc1C(F)(F)F)N1CCC(c2csc(C3=NOC(c4c(Cl)cccc4Cl)C3)n2)CC1 (stereo not shown) [Compound 13, 1-(4-(2-(5-(2,6-dichlorophenyl)-4,5-dihydroisoxazol-3-yl)thiazol-4-yl)piperidin-1-yl)-2-((3-(trifluoromethyl)pyrazin-2-yl)oxy)ethan-1-one] | ≥ 70% | ≥ 70% |
| O=C(COc1cc(C(F)(F)F)ncn1)N1CCC(c2nc(C3=NOC(c4c(Cl)cccc4Cl)C3)cs2)CC1 (stereo not shown) [Compound 14, 1-(4-(4-(5-(2,6-dichlorophenyl)-4,5-dihydroisoxazol-3-yl)thiazol-2-yl)piperidin-1-yl)-2-((6-(trifluoromethyl)pyrimidin-4-yl)oxy)ethan-1-one] | ≥ 70% | ≥ 70% |
| O=C(COc1ccnc(C(F)(F)F)n1)N1CCC(c2nc(C3=NOC(c4c(F)cccc4Br)C3)cs2)CC1 (stereo not shown) [Compound 15, 1-(4-(4-(5-(2-bromo-6-fluorophenyl)-4,5-dihydroisoxazol-3-yl)thiazol-2-yl)piperidin-1-yl)-2-((2-(trifluoromethyl)pyrimidin-4-yl)oxy)ethan-1-one] | ≥ 70% | ≥ 70% |
| O=C(COc1ccnc(C(F)(F)F)n1)N1CCC(c2nc(C3=NOC(c4c(Cl)cccc4Cl)C3)cs2)CC1 (stereo not shown) [Compound 16, 1-(4-(4-(5-(2,6-dichlorophenyl)-4,5-dihydroisoxazol-3-yl)thiazol-2-yl)piperidin-1-yl)-2-((2-(trifluoromethyl)pyrimidin-4-yl)oxy)ethan-1-one] | ≥ 70% | ≥ 70% |
| O=C(COc1ccnc(C(F)(F)F)n1)N1CCC(c2nc(C3=NOC(c4c(F)cccc4F)C3)cs2)CC1 (stereo not shown) [Compound 17, 1-(4-(4-(5-(2,6-difluorophenyl)-4,5-dihydroisoxazol-3-yl)thiazol-2-yl)piperidin-1-yl)-2-((2-(trifluoromethyl)pyrimidin-4-yl)oxy)ethan-1-one] | ≥ 70% | ≥ 70% |
| COc1ccnc(OCC(=O)N2CCC(c3nc(C4=NOC(c5c(Cl)cc(Cl)cc5Cl)C4)cs3)CC2)n1 (stereo not shown) [Compound 35, 2-((4-methoxypyrimidin-2-yl)oxy)-1-(4-(4-(5-(2,4,6-trichlorophenyl)-4,5-dihydroisoxazol-3-yl)thiazol-2-yl)piperidin-1-yl)ethan-1-one] |  | ≥ 70% |
| CSc1nccnc1OCC(=O)N1CCC(c2nc(C3=NOC(c4c(Cl)cccc4C#N)C3)cs2)CC1 (stereo not shown) [Compound 146, 3-chloro-2-(3-(2-(1-(2-((3-(methylthio)pyrazin-2-yl)oxy)acetyl)piperidin-4-yl)thiazol-4-yl)-4,5-dihydroisoxazol-5-yl)benzonitrile] | ≥ 70% |  |
| CSc1nccnc1OCC(=O)N1CCC(c2nc(C3=NOC(c4c(Cl)ccc(F)c4F)C3)cs2)CC1 (stereo not shown) [Compound 147, 1-(4-(4-(5-(6-chloro-2,3-difluorophenyl)-4,5-dihydroisoxazol-3-yl)thiazol-2-yl)piperidin-1-yl)-2-((3-(methylthio)pyrazin-2-yl)oxy)ethan-1-one] | ≥ 70% |  |
| CSc1nccnc1OCC(=O)N1CCC(c2nc(C3=NOC(c4c(Cl)cccc4Cl)C3)cs2)CC1 (stereo not shown) [Compound 148, 1-(4-(4-(5-(2,6-dichlorophenyl)-4,5-dihydroisoxazol-3-yl)thiazol-2-yl)piperidin-1-yl)-2-((3-(methylthio)pyrazin-2-yl)oxy)ethan-1-one] | ≥ 70% |  |
| CSc1nccnc1OCC(=O)N1CCC(c2nc(C3=NOC(c4cc(Cl)ccc4Cl)C3)cs2)CC1 (stereo not shown) [Compound 149, 1-(4-(4-(5-(2,5-dichlorophenyl)-4,5-dihydroisoxazol-3-yl)thiazol-2-yl)piperidin-1-yl)-2-((3-(methylthio)pyrazin-2-yl)oxy)ethan-1-one] | ≥ 70% |  |
| O=C(CSc1ccc(C(F)(F)F)nn1)N1CCC(c2nc(C3=NOC(c4c(F)cccc4F)C3)cs2)CC1 (stereo not shown) [Compound 150, 1-(4-(4-(5-(2,6-difluorophenyl)-4,5-dihydroisoxazol-3-yl)thiazol-2-yl)piperidin-1-yl)-2-((6-(trifluoromethyl)pyridazin-3-yl)thio)ethan-1-one] | ≥ 70% |  |
| O=C(CSc1ccc(C(F)(F)F)nn1)N1CCC(c2nc(C3=NOC(c4c(F)cccc4Br)C3)cs2)CC1 (stereo not shown) [Compound 151, 1-(4-(4-(5-(2-bromo-6-fluorophenyl)-4,5-dihydroisoxazol-3-yl)thiazol-2-yl)piperidin-1-yl)-2-((6-(trifluoromethyl)pyridazin-3-yl)thio)ethan-1-one] | ≥ 70% |  |
| N#Cc1ccnc(OCC(=O)N2CCC(c3nc(C4=NOC(c5cc(Cl)ccc5Cl)C4)cs3)CC2)n1 (stereo not shown) [Compound 152, 2-(2-(4-(4-(5-(2,5-dichlorophenyl)-4,5-dihydroisoxazol-3-yl)thiazol-2-yl)piperidin-1-yl)-2-oxoethoxy)pyrimidine-4-carbonitrile] | ≥ 70% |  |
| CS(=O)(=O)Oc1ccc(F)c2c1COC(c1csc(C3CCN(C(=O)COc4nccnc4C(F)(F)F)CC3)n1)OC2 (stereo not shown) [Compound 154, 9-fluoro-3-(2-(1-(2-((3-(trifluoromethyl)pyrazin-2-yl)oxy)acetyl)piperidin-4-yl)thiazol-4-yl)-1,5-dihydrobenzo[e][1,3]dioxepin-6-yl methanesulfonate] | ≥ 70% |  |
| CS(=O)(=O)Oc1ccc(F)c2c1COC(c1csc(C3CCN(C(=O)COc4nccnc4Cl)CC3)n1)OC2 (stereo not shown) [Compound 155, 3-(2-(1-(2-((3-chloropyrazin-2-yl)oxy)acetyl)piperidin-4-yl)thiazol-4-yl)-9-fluoro-1,5-dihydrobenzo[e][1,3]dioxepin-6-yl methanesulfonate] | ≥ 70% |  |
| CS(=O)(=O)Oc1ccc(F)c2c1COC(c1csc(C3CCN(C(=O)COc4ccnc(C(F)(F)F)n4)CC3)n1)OC2 (stereo not shown) [Compound 156, 9-fluoro-3-(2-(1-(2-((2-(trifluoromethyl)pyrimidin-4-yl)oxy)acetyl)piperidin-4-yl)thiazol-4-yl)-1,5-dihydrobenzo[e][1,3]dioxepin-6-yl methanesulfonate] | ≥ 70% |  |
| CS(=O)(=O)c1nccnc1OCC(=O)N1CCC(c2nc(C3=NOC(c4c(F)cccc4F)C3)cs2)CC1 (stereo not shown) [Compound 157, 1-(4-(4-(5-(2,6-difluorophenyl)-4,5-dihydroisoxazol-3-yl)thiazol-2-yl)piperidin-1-yl)-2-((3-(methylsulfonyl)pyrazin-2-yl)oxy)ethan-1-one] | ≥ 70% |  |
| CSc1nccnc1OCC(=O)N1CCC(c2nc(C3=NOC(c4c(Cl)cccc4Br)C3)cs2)CC1 (stereo not shown) [Compound 158, 1-(4-(4-(5-(2-bromo-6-chlorophenyl)-4,5-dihydroisoxazol-3-yl)thiazol-2-yl)piperidin-1-yl)-2-((3-(methylthio)pyrazin-2-yl)oxy)ethan-1-one] | ≥ 70% |  |
| CS(=O)(=O)c1nccnc1OCC(=O)N1CCC(c2nc(C3=NOC(c4c(F)cccc4Br)C3)cs2)CC1 (stereo not shown) [Compound 159, 1-(4-(4-(5-(2-bromo-6-fluorophenyl)-4,5-dihydroisoxazol-3-yl)thiazol-2-yl)piperidin-1-yl)-2-((3-(methylsulfonyl)pyrazin-2-yl)oxy)ethan-1-one] | ≥ 70% |  |
| COc1cc(OCC(=O)N2CCC(c3nc(C4=NOC(c5c(Cl)cccc5OS(C)(=O)=O)C4)cs3)CC2)ncn1 (stereo not shown) [Compound 160, 3-chloro-2-(3-(2-(1-(2-((6-methoxypyrimidin-4-yl)oxy)acetyl)piperidin-4-yl)thiazol-4-yl)-4,5-dihydroisoxazol-5-yl)phenyl methanesulfonate] | ≥ 70% |  |
